Laboratory results taken from paper PMC11187542, “Identification of fragments targeting SMYD3 using highly sensitive kinetic and multiplexed biosensor-based screening” (RSC Medicinal Chemistry, 2024).

Target: T1, SMYD3 (apo, native) (Homo sapiens, UniProt Q9H7B4)
T1 construct: Full length recombinant SMYD3 was produced as previously reported; made in house; host or cells: E. coli BL21(DE3), in some cases Rosetta 2
T1 sequence (Q9H7B4 1-428): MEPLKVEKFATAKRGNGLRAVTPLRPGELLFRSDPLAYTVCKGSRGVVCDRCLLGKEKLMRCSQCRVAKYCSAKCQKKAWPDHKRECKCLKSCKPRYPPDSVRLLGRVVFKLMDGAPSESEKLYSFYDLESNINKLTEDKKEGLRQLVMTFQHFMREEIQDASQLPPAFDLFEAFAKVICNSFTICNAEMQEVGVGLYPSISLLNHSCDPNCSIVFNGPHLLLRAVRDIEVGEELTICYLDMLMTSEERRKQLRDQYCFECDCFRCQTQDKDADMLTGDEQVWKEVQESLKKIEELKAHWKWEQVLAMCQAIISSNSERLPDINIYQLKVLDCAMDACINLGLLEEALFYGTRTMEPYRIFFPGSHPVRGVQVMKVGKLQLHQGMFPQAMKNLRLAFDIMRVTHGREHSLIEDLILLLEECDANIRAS
Experiment: GCI biosensor kinetic screening, apo SMYD3 surface
Format: binding
From the text: A multiplexed screening assay was set up with three different SMYD3 surfaces and a blank reference surface in flow channels 1–4 (FC1–FC4) (Fig. 2a), as described previously.[5] The apo SMYD3 surface detected fragments interacting anywhere on SMYD3, while a SMYD3 surface blocked by active site-specific tight-binding inhibitor EPZ031686 detected compounds binding elsewhere. The denatured surface served as a reference, detecting fragments binding to unfolded proteins, also potentially present to a significant degree in the other two surfaces.
After preparing the sensor surface and immobilising SMYD3, the functionality of the surface was assessed via analysis of interactions with the co-factor product S-adenosyl-homocysteine (SAH). It was used as a control in all experiments, confirming that sensor surfaces were intact. This was done using the novel multiple injection-based experimental design (Fig. 1) at 25 μM, i.e. in a weak binder mode (Fig. 2b).
The library was screened using the approach described in Fig. 1, i.e. injection of fragments at 250 μM for increasing durations of time in a single cycle, using a flow rate of 100 μL min^−1, data acquisition set to 40 Hz and with an association time of 5 s and dissociation of 20 s. Each fragment was addressed to all four channels and interactions with the native and blocked surfaces compared. The experimental conditions were chosen to ensure that the assay could reliably characterize the fast and transient interactions expected from typical fragments.
The kinetic screening of 1056 compounds was successfully completed in 72 hours. […] Hits were identified with full kinetic information using dissociation phases.
All interaction kinetic experiments were conducted with a GCI–flow-based biosensor (WAVEdelta, Creoptix AG/Malvern Panalytical) and PCH WAVEchip (Creoptix AG/Malvern Panalytical) sensor chips. The sensor chips were conditioned using injections of borate buffer (10 mM sodium tetraborate pH 8.5, 1 M NaCl). The running buffer composition, if not otherwise stated, was TBS buffer (50 mM Tris, 150 mM NaCl, 0.5 mM TCEP, 0.05% Tween 20, 1% DMSO, pH 8). SMYD3 was diluted to the desired concentration in 10 mM bis-Tris (pH 7.0) and amine coupled to the sensor surface of the PCH sensor chip. The sensor chip was functionalized at 25 °C by immobilising SMYD3 with EDC and NHS (Xantec) using an injection time of 420 s and a flow rate of 10 μL min^−1. The immobilisation levels ranged from 5000 pg mm^−2 to 18 500 pg mm^−2 surface mass to enable analysis of fragments spanning a broad range of affinities. After immobilization, the surface was deactivated with a running buffer containing 50 mM Tris for 420 s. The GCI data referencing and analysis were performed using WAVEcontrol V4.5 (Creoptix AG).
Kinetic measurements with controls and fragments were performed at 15 °C. Analysis of controls and follow up of hits was done using the multi cycle kinetic (MCK) injection of a concentration series for the same time, with a two-fold serial dilution starting at 250 μM for each compound. Solvent correction was performed ranging from 0.5–1.8% DMSO. Blank samples of the running buffer, 1× TBS (50 mM Tris, 150 mM NaCl, 0.5 mM TCEP, 0.05% Tween 20, 1% DMSO, pH 8), were injected during the measurements every fifth cycle. The experimental design illustrated in Fig. 1 was used for the screening against all four surfaces. The sensorgrams were adjusted to account for solvent correction and blank subtraction. Kinetic fitting was performed with the Direct Kinetics engine of WAVEcontrol software V4.5 (Creoptix AG) with a suitable fitting model.

LE (ligand efficiency) (LE = −RT ln(KD)/n): 0.63 (kcal^-1 mol^-1)/HA | Kd (initial kinetic screening, fragment 250 μM, 15 °C): 24.5 µM | kd (initial kinetic screening, fragment 250 μM, 15 °C, 1:1 model): 0.52 s⁻¹ | kon at 250 µM (initial kinetic screening, fragment 250 μM, 15 °C, 1:1 model, read-out: ka): 21400 M⁻¹ s⁻¹
SMILES: Cn1cnc(S(N)(=O)=O)c1 [FL06268]
